According to patent US7045495B2 (Sloan-Kettering Institute for Cancer Research, priority 1996, dated 2006):

Key:
MKN-74 [1] = assay: cell viability, trypan blue dye exclusion; assay type: cell-based, human; conditions: 24 hours, single drug or concomitant; bryostatin 1 μM, Mitomycin-C 1 μg/ml, Taxol 50 μM, Cisplatin 50 μM
Excerpt: Recently our laboratory has studied the effects of combining bryostatin with chemotherapy both in vitro and in vivo against solid tumors. For our in vitro studies, we have been using the human gastric cancer cell line MKN-74. Cytotoxicity has been examined both by cell viability assays using trypan blue dye exclusion assays and by the induction of apoptosis using quantitative fluorescent microscopy.

MKN-74 [2] = assay: cytotoxicity, Alamar Blue Assay; assay type: cell-based, human; conditions: 24 hours; RO 32-2241 10^-6 M, Mitomycin-C 5 μg/ml
Excerpt: It has been shown that PKC activity can act as an antagonist to apoptosis, whereas PKC inhibition can promote apoptosis. These observations imply that one function of PKC stimulated processes is to inhibit the induction of programmed cell death. Thus, anti-tumor effects of chemotherapeutic agents may be potentiated by PKC inhibitors that contribute to the induction of apoptosis after drug-induced damage. In order to test this hypothesis we have used the human gastric cancer cell MKN-74 to determine whether RO 32-2241 would enhance the cytotoxic effect of the chemotherapeutic agent Mitomycin-C (MMC). Cytotoxicity was measured and quantified using the Alamar Blue Assay. Cells were treated according to one of four conditions: (i) no drug (control) for 24 hours, (ii) RO 32-2241 alone at 10–6 M, (iii) Mitomycin-C alone at 5 μg/ml for 24 hours, (iv) the combination of RO 32-2241 (10^-6 M) and Mitomycin-C (5 μg/ml) for 24 hours. The results are summarized below for percent survival: […]

creatinine phosphokinase = conditions: read-out: concentration for 50% inhibition of creatinine phosphokinase; safingol; cited from earlier work
[3] = intravenous safingol in emulsion; cited from earlier work

Structure (SMILES) | % of Cells Alive (MKN-74 [1]) | Percent survival (MKN-74 [2]) | IC50 (creatinine phosphokinase) | clinical pathology and histopathology findings [3]
CO[C@@]12[C@H](COC(N)=O)C3=C(C(=O)C(C)=C(N)C3=O)N1C[C@@H]1N[C@@H]12 [MMC, Mitomycin-C] | 76% | 87% | – | –
CCCCCCCCCCCCCCC[C@H](O)[C@@H](N)CO [safingol, L-threo-dihydrosphingosine] | – | – | > 218 µM | venous irritation and transient intravascular hemolysis
